Test results reported in patent US20050148545A1, “Glucosamine organic acid adducts” (priority 2001, published 2005).

Assay: Homogeneity of GOA: citric acid by HPLC in eight aliquots
Format: physicochemical
Description: Citric acid is determined quantitatively by dissolving a known quantity of glucosamine citrate in deionized water. The solution is filtered through a 0.22μ filter into a HPLC vial. The sample is analyzed by HPLC using a BioRad HPX-87H column (BioRad, City, State) and 0.01 N H2SO4 as the mobile phase.
A sample containing a blend comprising 20% by weight anhydrous citric acid and 80% glucosamine hydrochloride was blended by tumbling for five minutes. The blended sample was poured into a tray. Eight aliquots were collected from different areas of the tray. The aliquots were diluted in 0.01N H2SO4, and then analyzed for citric acid by the method described in Example 6. The peak areas were normalized by the aliquot weights, and then averaged. The relative standard deviation for the eight aliquots was 7.7%.
A sample of GOA from Example 2, which had been stored at room temperature in a flask for approximately eleven months, having 12.3% citric acid was analyzed similarly. Eight aliquots were taken from the sample. Citric acid was determined by HPLC as described above. The peak areas were normalized by the aliquot weights, and then averaged. The relative standard deviation for the eight aliquots was 1.9%.
The analytical precision measured from eight aliquots of pure citric acid was 1.8% relative.

| Structure (SMILES) | degree of homogeneity (precision compared with pure citric acid) | analytical precision measured from eight aliquots (pure citric acid, HPLC) [% relative] |
| --- | --- | --- |
| N[C@H]1C(O)O[C@H](CO)[C@@H](O)[C@@H]1O.O=C(O)CC(O)(CC(=O)O)C(=O)O [GOA from Example 2, glucosamine citrate] | high degree of homogeneity |  |
| O=C(O)CC(O)(CC(=O)O)C(=O)O [citric acid] |  | 1.8 |
